Test results: patent publication US20190124924A1, “FUNGAL CONTROL OF WHITE MOLD” (DOW AGROSCIENCES LLC, priority 2015, published 2019)

Key:
Sclerotinia sclerotiorum [1] = assay: Field trials in oilseed rape, incidence of white mold and yield; format: in vivo; details: single application; for Yield of Oilseed Rape: untreated 4.08; for Percent (%) Incidence of Sclerotinia sclerotiorum at B65-B67 Growth Stage in Oilseed Rape: untreated 55
Sclerotinia sclerotiorum [2] = assay: Inhibition of mycelial growth by fungicides in Petri dishes (growth medium + fungicide); format: cell-based; details: for inhibition at 0.1 ppm / inhibition at 1 ppm / inhibition at 10 ppm / inhibition at 100 ppm: Sclerotinia sclerotiorum, 192 h, read-out: Percent (%) Inhibition of Mycelial Growth of Sclerotinia sclerotiorum
Protocol: Evaluation of Inhibition of Mycelial Growth by Fungicides (Sclerotinia sclerotiorum; Bayer code: […]): The growth inhibition of the fungus (Sclerotinia sclerotiorum) was assessed in Petri dishes containing the growth medium+fungicide at different concentrations. […] The number of sclerotia were counted. A completely randomized design with three replicates was used. Treatments consisted of fungicide compounds including Formula I, fluazinam, thiophanate-methyl, and procymidone.

Sclerotinia sclerotiorum [3] = assay: Field trial in dry bean, incidence of white mold; format: in vivo; details: two applications R5 and R6, untreated 12.5
Protocol: A field trial in dry bean was carried out in the state of Sao Paulo, Brazil. Two applications of the fungicides were done at growth stages R5 (first bloom) and R6 (full bloom) by using a carbon dioxide (CO2) backpack sprayer at an application rate of 600 liters per hectare (Uha). […] Treatments consisted of fungicide compounds including Formula I, fluazinam, thiophanate-methyl, and procymidone.

Sclerotinia sclerotiorum [4] = assay: Inhibition of Sclerotinia sclerotiorum on detached soybean leaves; format: in vivo; details: read-out: Percent (%) Inhibition of Sclerotinia sclerotiorum on Detached Soybean Leaves
Protocol: Evaluation of Inhibition of Sclerotinia sclerotiorum on Detached Soybean Leaves: Detached leaves of soybean were immersed for 3 seconds (s) in fungicide solutions at different concentrations and placed in Petri dishes. […] Symptoms were assessed for percent disease severity. Three leaves per plate with three replicates in a completely randomized design. Treatments consisted of fungicide compounds including Formula I, fluazinam, thiophanate-methyl, and procymidone.

| SMILES | Yield of Oilseed Rape (Sclerotinia sclerotiorum [1]; 150 g ai/ha) | Percent (%) Incidence of Sclerotinia sclerotiorum at B65-B67 Growth Stage in Oilseed Rape (Sclerotinia sclerotiorum [1]; 150 g ai/ha) | Number of Sclerotinia Formed per Colony (Sclerotinia sclerotiorum [2]; 0.1 ppm) | Number of Sclerotinia Formed per Colony (Sclerotinia sclerotiorum [2]; 1 ppm) | Number of Sclerotinia Formed per Colony (Sclerotinia sclerotiorum [2]; 10 ppm) | Number of Sclerotinia Formed per Colony (Sclerotinia sclerotiorum [2]; 100 ppm) | inhibition at 0.1 ppm (Sclerotinia sclerotiorum [2]; 0.1 ppm, 22° C., 8 days) | inhibition at 1 ppm (Sclerotinia sclerotiorum [2]; 1 ppm, 22° C., 8 days) | inhibition at 10 ppm (Sclerotinia sclerotiorum [2]; 10 ppm, 22° C., 8 days) | inhibition at 100 ppm (Sclerotinia sclerotiorum [2]; 100 ppm, 22° C., 8 days) | inhibition at 0.1 ppm (Sclerotinia sclerotiorum [4]; 0.1 ppm, leaves immersed 3 s) | inhibition at 1 ppm (Sclerotinia sclerotiorum [4]; 1 ppm, leaves immersed 3 s) | inhibition at 10 ppm (Sclerotinia sclerotiorum [4]; 10 ppm, leaves immersed 3 s) | inhibition at 100 ppm (Sclerotinia sclerotiorum [4]; 100 ppm, leaves immersed 3 s) | other results |
| --- | --- | --- | --- | --- | --- | --- | --- | --- | --- | --- | --- | --- | --- | --- | --- |
| OC(Cc1ccccc1Cl)(Cn1nc[nH]c1=S)C1(Cl)CC1 (racemic) [Prothioconazole, 2-[(2RS)-2-(1-chlorocyclopropyl)-3-(2-chlorophenyl)-2-hydroxypropyl]-2H-1,2,4-triazole-3(4H)-thione] | 4.4 T/ha | 31% | – | – | – | – | – | – | – | – | – | – | – | – | Yield of Oilseed Rape (Sclerotinia sclerotiorum [1]; 173 g ai/ha): 4.49 T/ha; Percent (%) Incidence of Sclerotinia sclerotiorum at B65-B67 Growth Stage in Oilseed Rape (Sclerotinia sclerotiorum [1]; 173 g ai/ha): 20% |
| O=C(Nc1ccccc1-c1ccc(Cl)cc1)c1cccnc1Cl [Boscalid, boscalid] | – | – | – | – | – | – | – | – | – | – | – | – | – | – | Yield of Oilseed Rape (Sclerotinia sclerotiorum [1]; 250 g ai/ha): 4.34 T/ha; Percent (%) Incidence of Sclerotinia sclerotiorum at B65-B67 Growth Stage in Oilseed Rape (Sclerotinia sclerotiorum [1]; 250 g ai/ha): 4% |
| COc1ccnc(C(=O)N[C@H]2COC(=O)[C@H](Cc3ccccc3)[C@@H](OC(=O)C(C)C)[C@H](C)OC2=O)c1OCOC(=O)C(C)C [Compound I, (3S,6S,7R,8R)-8-benzyl-3-(3-((isobutyryloxy)methoxy)-4-methoxypicolinamido)-6-methyl-4,9-dioxo-1,5-dioxonan-7-yl isobutyrate] | 4.23 T/ha | 19% | 3.33 | 2.33 | 1.67 | 1.33 | – | – | – | – | – | – | – | – | inhibition at 0.1 ppm (Sclerotinia sclerotiorum [2]): 28.3%; inhibition at 1 ppm (Sclerotinia sclerotiorum [2]): 72.4%; inhibition at 10 ppm (Sclerotinia sclerotiorum [2]): 80.7%; inhibition at 100 ppm (Sclerotinia sclerotiorum [2]): 91%; Percent (%) Incidence of Sclerotinia sclerotiorum at R7 Growth Stage on Dry Bean (Sclerotinia sclerotiorum [3]; 120 g ai/ha): 3.5%; Percent (%) Incidence of Sclerotinia sclerotiorum at R7 Growth Stage on Dry Bean (Sclerotinia sclerotiorum [3]; 240 g ai/ha): 1%; Yield of Oilseed Rape (Sclerotinia sclerotiorum [1]; 100 g ai/ha): 4.22 T/ha; Percent (%) Incidence of Sclerotinia sclerotiorum at B65-B67 Growth Stage in Oilseed Rape (Sclerotinia sclerotiorum [1]; 100 g ai/ha): 24%; Yield of Oilseed Rape (Sclerotinia sclerotiorum [1]; 130 g ai/ha): 4.29 T/ha; Percent (%) Incidence of Sclerotinia sclerotiorum at B65-B67 Growth Stage in Oilseed Rape (Sclerotinia sclerotiorum [1]; 130 g ai/ha): 24%; Yield of Oilseed Rape (Sclerotinia sclerotiorum [1]; 200 g ai/ha): 4.48 T/ha; Percent (%) Incidence of Sclerotinia sclerotiorum at B65-B67 Growth Stage in Oilseed Rape (Sclerotinia sclerotiorum [1]; 200 g ai/ha): 14%; inhibition at 0.1 ppm (Sclerotinia sclerotiorum [4]): 8.63%; inhibition at 1 ppm (Sclerotinia sclerotiorum [4]): 66.1%; inhibition at 10 ppm (Sclerotinia sclerotiorum [4]): 92.5%; inhibition at 100 ppm (Sclerotinia sclerotiorum [4]): 100% |
| O=[N+]([O-])c1cc(C(F)(F)F)c(Cl)c([N+](=O)[O-])c1Nc1ncc(C(F)(F)F)cc1Cl [Fluazinam, fluazinam] | – | – | 5.7 | 4.3 | 0 | 0 | 59.7% | 71.6% | 82.6% | 100% | 25.9% | 53.5% | 66.1% | 100% | Percent (%) Incidence of Sclerotinia sclerotiorum at R7 Growth Stage on Dry Bean (Sclerotinia sclerotiorum [3]; 500 g ai/ha): 0.8% |
| CC12CC1(C)C(=O)N(c1cc(Cl)cc(Cl)c1)C2=O (centres unmarked) [Procymidone, procymidone] | – | – | 18.67 | 16.2 | 1.67 | 0 | 10% | 24.5% | 68.2% | 100% | 19.5% | 59.8% | 85.1% | 100% | – |
| COC(=O)NC(=S)Nc1ccccc1NC(=S)NC(=O)OC [Thiophanate-Methyl, thiophanate-methyl] | – | – | 19.25 | 17.56 | 0 | 0 | 0% | 32.2% | 78.3% | 100% | 20.7% | 43.1% | 87.4% | 100% | – |
